In the NIST ThermoML archive (doi:10.1016/j.fluid.2006.09.021):
Numbers after ± are expanded uncertainties.

Details: Liquid, Closed cell (Static) method

S [hydrogen sulfide]
Details | vapor or sublimation pressure [kPa]
223.19 K | 167.4 ± 1.3
228.2 K | 209.1 ± 1.3
233.11 K | 257.4 ± 1.3
238.04 K | 313.9 ± 1.3
243.04 K | 380.1 ± 1.4
248.01 K | 456.7 ± 1.5
252.97 K | 544.2 ± 1.5
258.01 K | 644.5 ± 1.6
263 K | 757.7 ± 1.8
268.02 K | 885.7 ± 1.9
273.17 K | 1032.3 ± 2.1
278.24 K | 1194.1 ± 2.3
283.26 K | 1371.1 ± 2.5
288.31 K | 1566.6 ± 2.8
293.1 K | 1767.9 ± 3.3
293.3 K | 1779.5 ± 3.3
298.41 K | 2022.2 ± 3.5
303.08 K | 2259.6 ± 3.9
313.11 K | 2847.2 ± 4.8
323.18 K | 3540.4 ± 5.9
333.17 K | 4339.5 ± 7.2
343.16 K | 5261.2 ± 8.7
353.17 K | 6319.2 ± 10
363.16 K | 7533 ± 12
373.15 K | 8932.1 ± 14
